Reference: PubChem BioAssay (NCI)
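1) Cells in 96-well plates. 2) Compound, 48 h, 5 concentrations. 3) Linear interpolation between surrounding doses. 4) Unreached endpoint = highest concentration. GI50 = concentration required for 50% inhibition of growth. TGI marks complete inhibition of growth.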

Key:
Assay in all cases: growth of human tumour cells (NCI), 48 h
BT-549 breast = system: BT-549 breast
ACHN renal = system: ACHN renal
HCC-2998 colon = system: HCC-2998 colon
MDA-MB-435 = system: MDA-MB-435
SNB-75 CNS = system: SNB-75 CNS
CCRF-CEM leukemia = system: CCRF-CEM leukemia
SF-268 CNS = system: SF-268 CNS
HOP-62 NSCLC = system: HOP-62 NSCLC
PC-3 prostate = system: PC-3 prostate
HCT-116 colon = system: HCT-116 colon
MOLT-4 leukemia = system: MOLT-4 leukemia
RXF 393 renal = system: RXF 393 renal
HS 578T breast = system: HS 578T breast
TK-10 renal = system: TK-10 renal
LOX IMVI melanoma = system: LOX IMVI melanoma
NCI/ADR-RES ovarian = system: NCI/ADR-RES ovarian
OVCAR-3 ovarian = system: OVCAR-3 ovarian
NCI-H460 lung = system: NCI-H460 lung
SF-295 CNS = system: SF-295 CNS
SK-OV-3 ovarian = system: SK-OV-3 ovarian
A498 renal = system: A498 renal
COLO 205 colon = system: COLO 205 colon
SK-MEL-5 melanoma = system: SK-MEL-5 melanoma
KM12 colon = system: KM12 colon
SW-620 colon = system: SW-620 colon
A549 NSCLC = system: A549 NSCLC
OVCAR-5 ovarian = system: OVCAR-5 ovarian
786-0 renal = system: 786-0 renal
SK-MEL-2 melanoma = system: SK-MEL-2 melanoma
CAKI-1 renal = system: CAKI-1 renal
UO-31 renal = system: UO-31 renal
HT29 colon = system: HT29 colon
NCI-H226 lung = system: NCI-H226 lung
RPMI-8226 leukemia = system: RPMI-8226 leukemia
M14 melanoma = system: M14 melanoma
HOP-92 NSCLC = system: HOP-92 NSCLC
MDA-MB-231 breast = system: MDA-MB-231 breast
SN12C renal = system: SN12C renal
NCI-H522 lung = system: NCI-H522 lung
OVCAR-4 ovarian = system: OVCAR-4 ovarian
UACC-257 melanoma = system: UACC-257 melanoma
T-47D breast = system: T-47D breast
EKVX NSCLC = system: EKVX NSCLC
IGROV1 ovarian = system: IGROV1 ovarian
SK-MEL-28 melanoma = system: SK-MEL-28 melanoma
K-562 leukemia = system: K-562 leukemia
DU-145 prostate = system: DU-145 prostate
HL-60(TB) leukemia = system: HL-60(TB) leukemia
SR leukemia = system: SR leukemia
OVCAR-8 ovarian = system: OVCAR-8 ovarian
SF-539 CNS = system: SF-539 CNS
MCF7 breast = system: MCF7 breast
U251 CNS = system: U251 CNS
UACC-62 melanoma = system: UACC-62 melanoma
MALME-3M melanoma = system: MALME-3M melanoma
HCT-15 colon = system: HCT-15 colon
SNB-19 CNS = system: SNB-19 CNS

With `CC[C@H](CO)Nc1ccc2ncc(C#Cc3cncc(C(=O)Nc4ccc(CN5CCN(C)CC5)c(C(F)(F)F)c4)c3)n2n1` the GI50 (BT-549 breast) was 580 nM, the TGI (BT-549 breast) was 1670 nM and the GI50 (ACHN renal) was 442 nM. The TGI (ACHN renal) was 1130 nM, the GI50 (HCC-2998 colon) was 703 nM and the TGI (HCC-2998 colon) was 1690 nM. For the same compound, the GI50 (MDA-MB-435) was 451 nM, the TGI (MDA-MB-435) was 1090 nM and the GI50 (SNB-75 CNS) was 48.4 nM. For the same compound, the TGI (SNB-75 CNS) was 314 nM, the GI50 (CCRF-CEM leukemia) was 188 nM and the TGI (CCRF-CEM leukemia) was 1370 nM. For the same compound, the GI50 (SF-268 CNS) was 246 nM, the TGI (SF-268 CNS) was 1220 nM and the GI50 (HOP-62 NSCLC) was 288 nM. It also gave a TGI (HOP-62 NSCLC) of 1090 nM, a GI50 (PC-3 prostate) of 670 nM and a TGI (PC-3 prostate) of 2800 nM. The GI50 (HCT-116 colon) was 170 nM, the TGI (HCT-116 colon) was 662 nM and the GI50 (MOLT-4 leukemia) was 239 nM. The TGI (MOLT-4 leukemia) was 1940 nM, the GI50 (RXF 393 renal) was 273 nM and the TGI (RXF 393 renal) was 910 nM. The GI50 (HS 578T breast) was 200 nM, the TGI (HS 578T breast) was 1070 nM and the GI50 (TK-10 renal) was 1000 nM. For the same compound, the TGI (TK-10 renal) was 2450 nM, the GI50 (LOX IMVI melanoma) was 206 nM and the TGI (LOX IMVI melanoma) was 817 nM. The GI50 (NCI/ADR-RES ovarian) was 5850 nM, the TGI (NCI/ADR-RES ovarian) was 13400 nM and the GI50 (OVCAR-3 ovarian) was 576 nM. The TGI (OVCAR-3 ovarian) was 1630 nM, the GI50 (NCI-H460 lung) was 423 nM and the TGI (NCI-H460 lung) was 1140 nM. It also gave a GI50 (SF-295 CNS) of 555 nM, a TGI (SF-295 CNS) of 1600 nM and a GI50 (SK-OV-3 ovarian) of 1190 nM. The TGI (SK-OV-3 ovarian) was 2780 nM, the GI50 (A498 renal) was 266 nM and the TGI (A498 renal) was 721 nM. The GI50 (COLO 205 colon) was 126 nM, the TGI (COLO 205 colon) was 319 nM and the GI50 (SK-MEL-5 melanoma) was 766 nM. For the same compound, the TGI (SK-MEL-5 melanoma) was 1460 nM, the GI50 (KM12 colon) was 16.5 nM and the TGI (KM12 colon) was 1180 nM. For the same compound, the GI50 (SW-620 colon) was 186 nM, the TGI (SW-620 colon) was 803 nM and the GI50 (A549 NSCLC) was 356 nM. For the same compound, the TGI (A549 NSCLC) was 1450 nM, the GI50 (OVCAR-5 ovarian) was 553 nM and the TGI (OVCAR-5 ovarian) was 2070 nM. For the same compound, the GI50 (786-0 renal) was 362 nM, the TGI (786-0 renal) was 1080 nM and the GI50 (SK-MEL-2 melanoma) was 470 nM. The TGI (SK-MEL-2 melanoma) was 1210 nM, the GI50 (CAKI-1 renal) was 349 nM and the TGI (CAKI-1 renal) was 1110 nM. For the same compound, the GI50 (UO-31 renal) was 940 nM, the TGI (UO-31 renal) was 2140 nM and the GI50 (HT29 colon) was 221 nM. It also gave a TGI (HT29 colon) of 933 nM, a GI50 (NCI-H226 lung) of 205 nM and a TGI (NCI-H226 lung) of 1170 nM. For the same compound, the GI50 (RPMI-8226 leukemia) was 577 nM, the TGI (RPMI-8226 leukemia) was 1800 nM and the GI50 (M14 melanoma) was 322 nM. For the same compound, the TGI (M14 melanoma) was 1010 nM, the GI50 (HOP-92 NSCLC) was 70 nM and the TGI (HOP-92 NSCLC) was 307 nM. For the same compound, the GI50 (MDA-MB-231 breast) was 142 nM, the TGI (MDA-MB-231 breast) was 903 nM and the GI50 (SN12C renal) was 160 nM. The TGI (SN12C renal) was 1030 nM, the GI50 (NCI-H522 lung) was 238 nM and the TGI (NCI-H522 lung) was 997 nM. For the same compound, the GI50 (OVCAR-4 ovarian) was 507 nM, the TGI (OVCAR-4 ovarian) was 2540 nM and the GI50 (UACC-257 melanoma) was 760 nM. It also gave a TGI (UACC-257 melanoma) of 1530 nM, a GI50 (T-47D breast) of 900 nM and a TGI (T-47D breast) of 2920 nM. It also gave a GI50 (EKVX NSCLC) of 391 nM, a TGI (EKVX NSCLC) of 1620 nM and a GI50 (IGROV1 ovarian) of 152 nM. It also gave a TGI (IGROV1 ovarian) of 835 nM, a GI50 (SK-MEL-28 melanoma) of 681 nM and a TGI (SK-MEL-28 melanoma) of 1490 nM. For the same compound, the GI50 (K-562 leukemia) was 15.8 nM, the TGI (K-562 leukemia) was 636 nM and the GI50 (DU-145 prostate) was 579 nM. The TGI (DU-145 prostate) was 1430 nM, the GI50 (HL-60(TB) leukemia) was 218 nM and the TGI (HL-60(TB) leukemia) was 648 nM. For the same compound, the GI50 (SR leukemia) was 196 nM, the TGI (SR leukemia) was 888 nM and the GI50 (OVCAR-8 ovarian) was 589 nM. For the same compound, the TGI (OVCAR-8 ovarian) was 1320 nM, the GI50 (SF-539 CNS) was 45.4 nM and the TGI (SF-539 CNS) was 266 nM. It also gave a GI50 (MCF7 breast) of 163 nM, a TGI (MCF7 breast) of 807 nM and a GI50 (U251 CNS) of 580 nM. The TGI (U251 CNS) was 1310 nM, the GI50 (UACC-62 melanoma) was 767 nM and the TGI (UACC-62 melanoma) was 1570 nM. For the same compound, the GI50 (MALME-3M melanoma) was 660 nM, the TGI (MALME-3M melanoma) was 1430 nM and the GI50 (HCT-15 colon) was 813 nM. The TGI (HCT-15 colon) was 2070 nM, the GI50 (SNB-19 CNS) was 880 nM and the TGI (SNB-19 CNS) was 3280 nM.

`NC(N)=Nc1ccc(Oc2cccc(Nc3cccc(C(F)(F)F)c3)c2)cn1` showed a GI50 (BT-549 breast) of 1760 nM, a TGI (BT-549 breast) of 3300 nM and a GI50 (SNB-75 CNS) of 1370 nM. The TGI (SNB-75 CNS) was 2740 nM, the GI50 (PC-3 prostate) was 1470 nM and the TGI (PC-3 prostate) was 2880 nM. For the same compound, the GI50 (RXF 393 renal) was 1760 nM, the TGI (RXF 393 renal) was 3390 nM and the GI50 (TK-10 renal) was 1850 nM. The TGI (TK-10 renal) was 3630 nM, the GI50 (NCI/ADR-RES ovarian) was 4850 nM and the TGI (NCI/ADR-RES ovarian) was 37600 nM. The GI50 (SK-OV-3 ovarian) was 2080 nM, the TGI (SK-OV-3 ovarian) was 4270 nM and the GI50 (A498 renal) was 1510 nM. For the same compound, the TGI (A498 renal) was 3020 nM, the GI50 (A549 NSCLC) was 1880 nM and the TGI (A549 NSCLC) was 4420 nM. The GI50 (M14 melanoma) was 1760 nM, the TGI (M14 melanoma) was 3330 nM and the GI50 (SK-MEL-28 melanoma) was 1700 nM. It also gave a TGI (SK-MEL-28 melanoma) of 3160 nM, a GI50 (HL-60(TB) leukemia) of 2040 nM and a TGI (HL-60(TB) leukemia) of 4360 nM. It also gave a GI50 (SF-539 CNS) of 1720 nM, a TGI (SF-539 CNS) of 3220 nM and a GI50 (UACC-62 melanoma) of 1790 nM. The TGI (UACC-62 melanoma) was 3400 nM.
